Where a SMILES comes first, the peptide text is derived from it.
What was measured:
importin β = experiment: Bead halo assay, biotinylated importin β on neutravidin beads; assay type: binding, human; conditions: AF488-labeled; 1 mg/ml neuronal lysate added
Experimental: To prepare biotinylated WT importin β-Avitag (pKW1982, pK1099), BL21DE3 cells (New England Biolabs, Ipswich, MA) were co-transfected with the respective plasmids together with pAC-biotin ligase (Avidity), followed by plating and growth in LB media containing ampicillin and chloramphenicol. After the 37°C cultures reached OD600nm + 0.4–0.6, the cultures were cooled to room temperature, supplemented with 100 µM D-biotin, and the expression was induced with 0.3 mM IPTG at room temperature for 8–11 hr (pKW762). Proteins were purified on Ni-NTA resin as described for the non-biotinylated importin β fragments.
(§1) The bead halo assay was carried out as described with minor modifications ([Patel and Rexach, 2008]), using […] polystyrene beads coated with neutravidin (for biotinylated proteins) or glutathione (for GST-fusion proteins) (Spherotech, Lake Forest, IL). Beads were coated overnight at 4°C at saturating concentrations per manufacturers’ instructions and rinsed 2x in binding buffer (20 mM HEPES [pH 7.4], 150 mM KOAc, 2 mM Mg(OAc)2, 1 mM DTT, 0.1% Tween-20). Immediately prior to the assay, fluorescent bait proteins and beads were combined with 4x assay buffer (40 mM EDTA, 40 mg/ml BSA, 500 mM NaCl, and 0.2% Tween) to a total of 40 µL per well, in optical glass-bottom 96-well plates (Cellvis, Mountain View, CA). […]

Nup62 = experiment: DPR aggregation assay and western blot, Nup62; assay type: biochemical, human; conditions: 100 µM 10mer in 2.5 mg/ml HEK lysate, normalized to untreated HEK
Experimental: (§2) Supernatant and pellet fractions (for all 5 DPRs, and control/buffer only) were prepared as in the nuclear transport assays, by adding 100 µM 10mers to 2.5 mg/ml HEK lysate in 100 µL TRB. Supernatants were boiled in Laemmli (BioRad) for 5 min. Pellets were boiled for 15 min followed by sonication in order to fully disperse aggregates for SDS-PAGE. Equal volumes of supernatant and pellet fractions were run on 4–12% Bolt Bis-Tris Plus gels (ThermoFisher), transferred to nitrocellulose membrane using an iBlot2 dry blotting system (ThermoFisher). Protein loading was analyzed by BLOT-Faststain (G-biosciences, St. Louis, MO), according to the manufacterers’ instructions. For immunodetection, membranes were blocked with 5% non-fat milk in TBST and probed by sequential incubation with the primary antibodies as detailed in the table below. Detection was by HRP-conjugated secondary antibodies/chemiluminescence using an ImageQuant LAS 4000 system (GE, Chicago, IL). To permit sequential probing of membranes without stripping, signals were quenched by incubation with prewarmed 30% H20_2 for 20 min ([Sennepin et al., 2009]). Band intensities were measured by ImageQuant software. For pellet vs. supernatant fractions, all were expressed as percent untreated control. For blots in Figure 1E, samples were run on 4–20% SDS PAGE minigels (ThermoFisher) and blotted to PVDF membranes (Immun-Blot PVDF, Bio-Rad) using the Bio-Rad TransBlot Turbo apparatus, and probed as above. The chemiluminescence signal was captured with a Bio-Rad ChemiDoc XRS+ digital imaging system.

BSA = experiment: Bead halo assay, biotinylated BSA-coated beads (non-specific control); assay type: binding; conditions: AF488-labeled
Experimental: Purified WT importin β (pKW485) diluted to 10 µM in XB was combined with 10-molar excess of Alexa Fluor 647 NHS ester (ThermoFisher), using freshly-prepared 10 mM dye in anhydrous DMSO. After incubation on ice for 2 hr, the sample was dialyzed in PBS and concentrated on 30kD MWCO filter (Millipore Sigma) before storage. A similar protocol was used to label BSA with 10-molar excess Sulfo-NHS-LC-biotin (ThermoFisher), followed by dialysis in PBS.
as §1, with “CA). Reactions were allowed to equilibrate at room temperature for a minimum of 30 min prior to imaging at 100x on an LSM800 confocal microscope (Zeiss, Oberkochen, Germany).” for “CA).”

Nup98 = experiment: DPR aggregation assay and western blot, Nup98; assay type: biochemical, human; conditions: 100 µM 10mer in 2.5 mg/ml HEK lysate, normalized to untreated HEK
Experimental: as §2

hnRNPA2/B1 = experiment: DPR aggregation assay and western blot, hnRNPA2/B1; assay type: biochemical, human; conditions: normalized to untreated HEK cells on the same membrane
Experimental: as §2

Nup54 = experiment: DPR aggregation assay and western blot, Nup54; assay type: biochemical, human; conditions: 100 µM 10mer in 2.5 mg/ml HEK lysate; Blot 1; normalized to untreated HEK
Experimental: as §2, with “For blots in Figure 1E, samples were run on 4–20% SDS PAGE minigels (ThermoFisher) and blotted to PVDF membranes (Immun-Blot PVDF, Bio-Rad) using the Bio-Rad TransBlot Turbo apparatus, and probed as above. The chemiluminescence signal was captured with a Bio-Rad ChemiDoc XRS+ digital imaging system.” left out

Nup133 = experiment: DPR aggregation assay and western blot, Nup133; assay type: biochemical, human; conditions: 100 µM 10mer in 2.5 mg/ml HEK lysate, normalized to untreated HEK
Experimental: as §2

N=C(N)NCCC[C@H](NC(=O)[C@@H]1CCCN1C(=O)[C@H](CCCNC(=N)N)NC(=O)[C@@H]1CCCN1C(=O)[C@H](CCCNC(=N)N)NC(=O)[C@@H]1CCCN1C(=O)[C@H](CCCNC(=N)N)NC(=O)[C@@H]1CCCN1C(=O)[C@H](CCCNC(=N)N)NC(=O)[C@@H]1CCCN1C(=O)[C@H](CCCNC(=N)N)NC(=O)[C@@H]1CCCN1C(=O)[C@H](CCCNC(=N)N)NC(=O)[C@@H]1CCCN1C(=O)[C@H](CCCNC(=N)N)NC(=O)[C@@H]1CCCN1C(=O)[C@H](CCCNC(=N)N)NC(=O)[C@@H]1CCCN1C(=O)[C@H](CCCNC(=N)N)NC(=O)[C@@H]1CCCN1)C(=O)O [PR10] (H-PRPRPRPRPRPRPRPRPRPR-OH; N-terminus and C-terminus assumed)
Binding to importin β-coated beads (importin β): the intensity of the importin β halo persisted | Nup62 band density, Pellet (Nup62; Blot 1): 204.0 % control | Nup62 band density, Supernatant (Nup62; Blot 1): 154.3 % control | Nup62 band density, Pellet (Nup62; Blot 2): 227.1 % control | Nup62 band density, Supernatant (Nup62; Blot 2): 111.0 % control | Binding to BSA-coated beads (BSA; 200 nM, binding buffer): modest non-specific binding | Nonspecific binding to control beads (BSA; 1 mg/ml neuronal lysate added): nonspecific binding decreased | Nup98 band density, Pellet (Nup98; Blot 1): 109.9 % control | Nup98 band density, Supernatant (Nup98; Blot 1): 57.2 % control | Nup98 band density, Pellet (Nup98; Blot 2): 150.1 % control | Nup98 band density, Supernatant (Nup98; Blot 2): 67.5 % control | hnRNPA2/B1 band density, % control (hnRNPA2/B1; Pellet, Blot 1): 426.4 % control | hnRNPA2/B1 band density, % control (hnRNPA2/B1; Pellet, Blot 2): 309.1 % control | hnRNPA2/B1 band density, % control (hnRNPA2/B1; Supernatant, Blot 1): 53.5 % control | hnRNPA2/B1 band density, % control (hnRNPA2/B1; Supernatant, Blot 2): 56.7 % control | Nup54 band density, Pellet (Nup54): 143.4 % control | Nup54 band density, Supernatant (Nup54): 96.8 % control | Nup133 band density, Pellet (Nup133; Blot 1): 156.5 % control | Nup133 band density, Supernatant (Nup133; Blot 1): 45.6 % control | Nup133 band density, Pellet (Nup133; Blot 2): 194.3 % control | Nup133 band density, Supernatant (Nup133; Blot 2): 40.2 % control

Reference: publication PMC7051184, “C9orf72 arginine-rich dipeptide repeat proteins disrupt karyopherin-mediated nuclear import” (eLife, 2020)
